Experimental data as given in US9358267B2, “High purity lipopeptides” (Cubist Pharmaceuticals LLC, priority 2000, dated 2016).

Assays:
[1] = system: gram-positive organisms (susceptible and resistant strains); assay: in vitro antibacterial activity (MIC); format: cell-based
Method: In addition, the minimum inhibitory concentration (MIC) value for daptomycin against susceptible strains is typically 4-fold lower than that of vancomycin. […] Thus, in a preferred embodiment, purified daptomycin, lipopeptide antibiotic, or pharmaceutical compositions thereof are administered according to the methods of this invention to a patient in need of rapidly acting antibiotic therapy.

[2] = critical micellar concentration (cmc) of daptomycin; format: physicochemical
From the text: Micelle formation causes changes in several bulk physical properties of a solution including changes in osmotic pressure, turbidity, electrical conductance, surface tension, co-ion and counterion activities (in the case of ionic, amphipathic molecules), refractive index, UV and NMR spectra, partial molar volume, viscosity, diffusion coefficient and dye solubilization. The cmc can be determined by measuring one or more of these micelle-dependent physical properties as a function of concentration of the amphipathic molecule. The size and shape of micelles can be determined by dynamic laser light scattering, ultracentrifugation, viscosity and/or low-angle X-ray scattering experiments. Micelles can also exist in liquid crystal phases.
In another embodiment of the invention, the pH of a solution comprising a lipopeptide is manipulated to influence the cmc of the lipopeptide. In a preferred embodiment, the lipopeptide is daptomycin or a daptomycin-related molecule, such as those described supra. In an even more preferred embodiment, the lipopeptide is daptomycin. In one embodiment, the pH is manipulated so that the concentration of a lipopeptide is higher than the cmc at one pH and is lower than the cmc at another pH. For instance, for daptomycin, the cmc at pH 4.0 in water at a temperature of 20-25° C. was much lower than at pH 6.0 or 7.5. […]

[3] = size of daptomycin micelles by light scatter (Zetasizer); format: physicochemical; conditions: for micelle size: 1 mg/mL, pH approximately 4.0 in water, light scatter
Method: The daptomycin micelles have an average size of 5.4 nm (54 A).
Daptomycin micelles were produced using daptomycin at a concentration of 1.0 mg/mL in water at pH 4.0 at 25° C. The size of a daptomycin micelle was measured using a Zetasizer™ (Malvern Instruments, Model 3000 HS). The count rate of 36.3, the cell type was a capillary cell, the detection angle (deg) was 90°, and the wavelength (nm) was 633.

CCCCCCCCCC(=O)N[C@@H](Cc1c[nH]c2ccccc12)C(=O)N[C@H](CC(N)=O)C(=O)N[C@@H](CC(=O)O)C(=O)N[C@@H]1C(=O)NCC(=O)N[C@@H](CCCN)C(=O)N[C@@H](CC(=O)O)C(=O)N[C@H](C)C(=O)N[C@@H](CC(=O)O)C(=O)NCC(=O)N[C@H](CO)C(=O)N[C@@H]([C@H](C)CC(=O)O)C(=O)N[C@@H](CC(=O)c2ccccc2N)C(=O)O[C@@H]1C [daptomycin]
antibacterial activity against classically resistant strains relative to classically susceptible strains ([1]; in vitro experiments): comparable | MIC, fold lower than that of vancomycin ([1]; susceptible strains): ~4 fold | aggregation state (monomeric or micellar) ([2]; 150 mg/mL daptomycin, pH 6.5, 150 mM to 300 mM NaCl, 4° C.): monomeric | critical micellar concentration (cmc) ([2]; pH 4.0 in water, 20-25° C.): approximately 400 μg/mL | diameter of the micelle ([3]; 1.0 mg/mL in water, pH 4.0, 25° C., Zetasizer): 54 A | micelle size [3]: 5.4 nm | micelle size ([3]; listed as Daptomycin): approximately 5.4 nm
